Measurements from patent US11583545B2, “Parasiticidal compositions comprising eprinomectin and praziquantel, methods and uses thereof” (BOEHRINGER INGELHEIM ANIMAL HEALTH USA INC., priority 2018, dated 2023).

Tests used:
[1] = Stability study of topical solution in the market container (HPLC, 30° C./65% RH); type: physicochemical; settings: in formulation of Example 1, two runs
in vivo = settings: cat
[2] = in vivo
[3] = Pharmacokinetic assessment in cats after administration of the formulation of Example 1; settings: blood of cats; after administration of formulation of Example 1

| Compound | average % label claim ([1]; time point 0 month) [% LC] | average % label claim ([1]; time point 3 months) [% LC] | average % label claim ([1]; time point 6 months) [% LC] | average % label claim ([1]; time point 9 months) [% LC] | average % label claim ([1]; time point 12 months) [% LC] | average % label claim ([1]; time point 18 months) [% LC] | half-life (in vivo) [h] | time at which Cmax is reached [2] [h] | terminal half-life [3] [h] |
| --- | --- | --- | --- | --- | --- | --- | --- | --- | --- |
| O=C(C1CCCCC1)N1CC(=O)N2CCc3ccccc3C2C1 (stereo not drawn) [Praziquantel, praziquantel] | 99.52 | 97.38 | 97.74 | 98.44 | 98.36 | 97.04 | 73.9 | 6 |  |
| Eprinomectin | 99.33 | 97.92 | 97.61 | 98.40 | 98.50 | 96.48 |  |  | 114 |
